This is an account of results in patent US11673892B2, “Bicyclic compounds for use as RIP1 kinase inhibitors” (Genentech, Inc., priority 2017, dated 2023).

This test deals with T1, human RIP1 kinase domain (2-375) (Homo sapiens, UniProt Q13546).
T1 construct: Purified human RIP1 kinase domain (2-375) (50 nM); made in house; host or cells: baculovirus-infected insect cells
T1 sequence (Q13546 2-375): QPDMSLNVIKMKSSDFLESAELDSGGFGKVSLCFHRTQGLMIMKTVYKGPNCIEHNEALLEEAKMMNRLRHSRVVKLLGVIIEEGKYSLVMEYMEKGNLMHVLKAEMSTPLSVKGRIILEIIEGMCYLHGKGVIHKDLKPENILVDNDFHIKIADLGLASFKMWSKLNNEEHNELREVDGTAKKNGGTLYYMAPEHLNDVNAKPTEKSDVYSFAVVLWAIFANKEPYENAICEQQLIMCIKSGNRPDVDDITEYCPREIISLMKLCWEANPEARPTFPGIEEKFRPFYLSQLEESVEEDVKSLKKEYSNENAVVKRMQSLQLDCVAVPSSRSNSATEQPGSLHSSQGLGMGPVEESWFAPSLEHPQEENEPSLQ
Description: RIP1 kinase inhibition biochemical assay (Transcreener ADP, fluorescence polarization). The following applies: Ki app (Morrison tight-binding fit); 50 nM enzyme, 50 uM ATP, 2 hours incubation. Put shortly:
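Baculovirus-expressed human RIP1 kinase domain (2-375), 50 nM, incubated 2 h with compounds in pH 7.5 Hepes, 30 mM MgCl2, 50 uM ATP, 0.5% DMSO. ADP detected by Transcreener fluorescence-polarization tracer displacement; Ki^app from Morrison tight-binding fit.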

`OC(c1nc2n(n1)[C@H](c1ccccc1)C[C@@H]2F)[C@@H]1C[C@H]1F` (stereo partly drawn) [Example 108, [(1S,2R)-2-fluorocyclopropyl]-[(5S,7S)-7-fluoro-5-phenyl-6,7-dihydro-5H-pyrrolo[1,2-b][1,2,4]triazol-2-yl]methanol] returned a Ki of 120 nM. The figure for `Fc1ccccc1[C@@H]1C[C@H](F)c2nc(CC3CC3(F)F)nn21` (stereo partly drawn) [Example 112, (5S,7S)-2-[(2,2-difluorocyclopropyl)methyl]-7-fluoro-5-(2-fluorophenyl)-6,7-dihydro-5H-pyrrolo[1,2-b][1,2,4]triazole] is 4.5 nM; for `CC(F)(F)C(O)c1nc2n(n1)[C@H](c1ccccc1)C[C@@H]2F` (stereo partly drawn) [Example 117, 2,2-difluoro-1-[(5S,7S)-7-fluoro-5-phenyl-6,7-dihydro-5H-pyrrolo[1,2-b][1,2,4]triazol-2-yl]propan-1-ol] it is 420 nM.
